{
  "source": "PubChem BioAssay (NCI)",
  "note": "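Where inhibition never reached the appropriate level, the endpoint shown equals the highest concentration tested. Otherwise, values were interpolated linearly from a five-concentration, 48-hour dose response in 96-well plates. The concentration for full growth arrest is given as TGI.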",
  "data": [
    {"test_system": "UACC-257 melanoma", "test": "inhibition of tumour cell growth, NCI panel, 48 h", "units": {"TGI": "µM"}, "values": [
      {"compound": "CC1(C)C=CC(=O)C(O)C(C)(C)C1=O", "note": "(stereo not drawn)", "TGI": "> 100"},
      {"compound": "CNc1nc(N)nc(Nc2ccc(I)cc2)c1N=O", "TGI": "> 100"},
      {"compound": "O=C1/C(=C/c2ccc(Cl)cc2)CCCc2ccccc21", "TGI": 77.7},
      {"compound": "Cc1cc(C[C@H]2O[C@@H]3OC(C)(C)O[C@@H]3[C@H]3OC(C)(C)O[C@H]32)c2ccccc2n1", "TGI": "> 100"},
      {"compound": "Nc1ncnc2c1ccn2C/C=C/CO", "TGI": "> 100"},
      {"compound": "CC(C)(C)c1ccc2c(c1)C#Cc1cc3c(cc1OCCCO2)C#Cc1cc(C(C)(C)C)ccc1OCCCO3", "TGI": "> 100"}
    ]},
    {"test_system": "DU-145 prostate", "test": "inhibition of tumour cell growth, NCI panel, 48 h", "units": {"TGI": "µM"}, "values": [
      {"compound": "CNc1nncc2[nH]cnc12", "TGI": "> 100"},
      {"compound": "COc1ccc(N2C(=O)C3c4[nH]c5cc(C)ccc5c4C4CCC(C(C)(C)C)CC4C3C2=O)cc1", "note": "(stereo not drawn)", "TGI": "> 10"},
      {"compound": "CC1(C)C=CC(=O)C(O)C(C)(C)C1=O", "note": "(stereo not drawn)", "TGI": "> 100"},
      {"compound": "CNc1nc(N)nc(Nc2ccc(I)cc2)c1N=O", "TGI": "> 100"},
      {"compound": "O=C1/C(=C/c2ccc(Cl)cc2)CCCc2ccccc21", "TGI": 59},
      {"compound": "Cc1cc(C[C@H]2O[C@@H]3OC(C)(C)O[C@@H]3[C@H]3OC(C)(C)O[C@H]32)c2ccccc2n1", "TGI": "> 100"},
      {"compound": "Nc1ncnc2c1ccn2C/C=C/CO", "TGI": "> 100"},
      {"compound": "CC(C)(C)c1ccc2c(c1)C#Cc1cc3c(cc1OCCCO2)C#Cc1cc(C(C)(C)C)ccc1OCCCO3", "TGI": "> 100"}
    ]},
    {"test_system": "EKVX NSCLC", "test": "inhibition of tumour cell growth, NCI panel, 48 h", "units": {"TGI": "µM"}, "values": [
      {"compound": "CNc1nncc2[nH]cnc12", "TGI": "> 100"},
      {"compound": "COc1ccc(N2C(=O)C3c4[nH]c5cc(C)ccc5c4C4CCC(C(C)(C)C)CC4C3C2=O)cc1", "note": "(stereo not drawn)", "TGI": "> 10"},
      {"compound": "CC1(C)C=CC(=O)C(O)C(C)(C)C1=O", "note": "(stereo not drawn)", "TGI": "> 100"},
      {"compound": "CNc1nc(N)nc(Nc2ccc(I)cc2)c1N=O", "TGI": "> 100"},
      {"compound": "O=C1/C(=C/c2ccc(Cl)cc2)CCCc2ccccc21", "TGI": 35.3},
      {"compound": "Cc1cc(C[C@H]2O[C@@H]3OC(C)(C)O[C@@H]3[C@H]3OC(C)(C)O[C@H]32)c2ccccc2n1", "TGI": "> 100"},
      {"compound": "Nc1ncnc2c1ccn2C/C=C/CO", "TGI": "> 100"},
      {"compound": "CC(C)(C)c1ccc2c(c1)C#Cc1cc3c(cc1OCCCO2)C#Cc1cc(C(C)(C)C)ccc1OCCCO3", "TGI": "> 100"}
    ]},
    {"test_system": "MDA-MB-231 breast", "test": "inhibition of tumour cell growth, NCI panel, 48 h", "units": {"TGI": "µM"}, "values": [
      {"compound": "CNc1nncc2[nH]cnc12", "TGI": "> 100"},
      {"compound": "COc1ccc(N2C(=O)C3c4[nH]c5cc(C)ccc5c4C4CCC(C(C)(C)C)CC4C3C2=O)cc1", "note": "(stereo not drawn)", "TGI": "> 10"},
      {"compound": "CC1(C)C=CC(=O)C(O)C(C)(C)C1=O", "note": "(stereo not drawn)", "TGI": "> 100"},
      {"compound": "CNc1nc(N)nc(Nc2ccc(I)cc2)c1N=O", "TGI": "> 100"},
      {"compound": "O=C1/C(=C/c2ccc(Cl)cc2)CCCc2ccccc21", "TGI": 39.7},
      {"compound": "Nc1ncnc2c1ccn2C/C=C/CO", "TGI": "> 100"},
      {"compound": "CC(C)(C)c1ccc2c(c1)C#Cc1cc3c(cc1OCCCO2)C#Cc1cc(C(C)(C)C)ccc1OCCCO3", "TGI": "> 100"}
    ]},
    {"test_system": "NCI-H226 lung", "test": "inhibition of tumour cell growth, NCI panel, 48 h", "units": {"TGI": "µM"}, "values": [
      {"compound": "COc1ccc(N2C(=O)C3c4[nH]c5cc(C)ccc5c4C4CCC(C(C)(C)C)CC4C3C2=O)cc1", "note": "(stereo not drawn)", "TGI": "> 10"},
      {"compound": "CC1(C)C=CC(=O)C(O)C(C)(C)C1=O", "note": "(stereo not drawn)", "TGI": "> 100"},
      {"compound": "O=C1/C(=C/c2ccc(Cl)cc2)CCCc2ccccc21", "TGI": 35.9},
      {"compound": "Cc1cc(C[C@H]2O[C@@H]3OC(C)(C)O[C@@H]3[C@H]3OC(C)(C)O[C@H]32)c2ccccc2n1", "TGI": "> 100"}
    ]},
    {"test_system": "SNB-19 CNS", "test": "inhibition of tumour cell growth, NCI panel, 48 h", "units": {"TGI": "µM"}, "values": [
      {"compound": "CNc1nncc2[nH]cnc12", "TGI": "> 100"},
      {"compound": "COc1ccc(N2C(=O)C3c4[nH]c5cc(C)ccc5c4C4CCC(C(C)(C)C)CC4C3C2=O)cc1", "note": "(stereo not drawn)", "TGI": "> 10"},
      {"compound": "CC1(C)C=CC(=O)C(O)C(C)(C)C1=O", "note": "(stereo not drawn)", "TGI": "> 100"},
      {"compound": "CNc1nc(N)nc(Nc2ccc(I)cc2)c1N=O", "TGI": "> 100"},
      {"compound": "O=C1/C(=C/c2ccc(Cl)cc2)CCCc2ccccc21", "TGI": 43.6},
      {"compound": "Cc1cc(C[C@H]2O[C@@H]3OC(C)(C)O[C@@H]3[C@H]3OC(C)(C)O[C@H]32)c2ccccc2n1", "TGI": "> 100"},
      {"compound": "Nc1ncnc2c1ccn2C/C=C/CO", "TGI": "> 100"},
      {"compound": "CC(C)(C)c1ccc2c(c1)C#Cc1cc3c(cc1OCCCO2)C#Cc1cc(C(C)(C)C)ccc1OCCCO3", "TGI": "> 100"}
    ]},
    {"test_system": "HCT-15 colon", "test": "inhibition of tumour cell growth, NCI panel, 48 h", "units": {"TGI": "µM"}, "values": [
      {"compound": "CNc1nncc2[nH]cnc12", "TGI": "> 100"},
      {"compound": "COc1ccc(N2C(=O)C3c4[nH]c5cc(C)ccc5c4C4CCC(C(C)(C)C)CC4C3C2=O)cc1", "note": "(stereo not drawn)", "TGI": "> 10"},
      {"compound": "CC1(C)C=CC(=O)C(O)C(C)(C)C1=O", "note": "(stereo not drawn)", "TGI": "> 100"},
      {"compound": "CNc1nc(N)nc(Nc2ccc(I)cc2)c1N=O", "TGI": "> 100"},
      {"compound": "O=C1/C(=C/c2ccc(Cl)cc2)CCCc2ccccc21", "TGI": 27.7},
      {"compound": "Cc1cc(C[C@H]2O[C@@H]3OC(C)(C)O[C@@H]3[C@H]3OC(C)(C)O[C@H]32)c2ccccc2n1", "TGI": "> 100"},
      {"compound": "Nc1ncnc2c1ccn2C/C=C/CO", "TGI": "> 100"},
      {"compound": "CC(C)(C)c1ccc2c(c1)C#Cc1cc3c(cc1OCCCO2)C#Cc1cc(C(C)(C)C)ccc1OCCCO3", "TGI": 5.92}
    ]},
    {"test_system": "HCC-2998 colon", "test": "inhibition of tumour cell growth, NCI panel, 48 h", "units": {"TGI": "µM"}, "values": [
      {"compound": "COc1ccc(N2C(=O)C3c4[nH]c5cc(C)ccc5c4C4CCC(C(C)(C)C)CC4C3C2=O)cc1", "note": "(stereo not drawn)", "TGI": "> 10"},
      {"compound": "CNc1nc(N)nc(Nc2ccc(I)cc2)c1N=O", "TGI": "> 100"},
      {"compound": "O=C1/C(=C/c2ccc(Cl)cc2)CCCc2ccccc21", "TGI": 36.7},
      {"compound": "Cc1cc(C[C@H]2O[C@@H]3OC(C)(C)O[C@@H]3[C@H]3OC(C)(C)O[C@H]32)c2ccccc2n1", "TGI": "> 100"}
    ]}
  ]
}
